Results reported in patent US11999758B2, “Inhibitors of the YAP/TAZ-TEAD interaction and their use in the treatment of cancer” (INVENTIVA, priority 2018, dated 2024).
Counter-ions that a name gives are not always drawn.

Target: T1, YAP-TEAD interaction (Homo sapiens, UniProt P28347)
T1 construct: expressed in transfected cells; host or cells: HEK293 GripTite 293 MSR (Invitrogen R795-07)
Assay: Cell-based TEAD-GAL4 transactivation assay (luciferase reporter)
Conditions: HEK293 cells transfected with TEAD1-Gal4, YAP mutant (S127A, S397A) and luciferase reporter, compounds 0.1 μM to 30 μM; for Emax: HEK293, 24 h, read-out: TEAD-GAL4 Transactivation activity Max Act; for IC50: 24 h
Procedure: To identify inhibitors of YAP-TEAD interaction, a transient transactivation assay was carried out on HEK293 cell line (HEK293 GripTite™ 293 MSR (Invitrogen R795-07)) using plasmids containing the full length TEAD1 sequences, the full length YAP mutant (S127A, S397A) and a luciferase gene reporter. All expression constructs were performed into a pSG5 backbone plasmid in which the SV40 promoter was replaced by the CMV promoter. The TEAD1 construct was prepared by cloning the full-length human TEAD1 cDNA in fusion with the Gal4 DNA Binding Domain (AA 1-148) into pSG5_CMV to create the TEAD1 (FL)_hum_pSG5Gal4_CMV. The full-length YAP mutant (S127A, S397A) was also cloned into pSG5_CMV to create the YAP (FL)_hum_pSG5_mutS127A_S397A_CMV. The reporter plasmid GAL4(5×RE)_TK(−105/+56)_pGL3-Basic contains 5 copies of the GAL4 responsive element (5′-TCGGAGGACAGTACTCC-3′) upstream of the thymidine kinase (TK) promoter (−105/+56) inserted in a pGL3-Basic vector. To evaluate the selectivity of our compounds in blocking the YAP-TEAD interaction, a counter-screening protein-protein interaction transactivation assay was also established. Briefly, two other expression plasmids, the pBD-P53 which expresses the P53 (AA 72-390) in fusion with Gal4 and the pAD-SV40T which expresses the SV40 large T antigen (AA 84-708,AgT), were created. HEK293 cells were seeded at 5×10^4 cells/well in 96 well plates (assay plates) in DMEM medium containing 4.5 g/L D-glucose, 10% high inactivated (HI) fetal bovine serum 1% Glutamax, 1% non-essential amino acid and 1% sodium pyruvate and 0.5% penicillin/streptomycin at 37° C. in a humidified atmosphere of 8% CO2. After 24 h, transfections were performed using Jet-PEI as transfectant (101B-010 Polyplus Transfection), according to the instructions of the manufacturer (N/P=10) and a ratio YAP/TEAD=10 (per well: 50 ng of YAP(FL), 5 ng of TEAD(FL) and 50 ng of reporter plasmid). Six hours after cell transfection, the plates (‘assay plate’) were washed with 100 μl PBS per well and cells were treated with compounds in semi-log from 0.1 μM to 30 μM or DMSO 0.5% as control in DMEM, 4.5 g/L D-Glucose without phenol red, 0.3% BSA, 1% glutamax, 1% NEAA, 1% sodium pyruvate. 24 h later, the luciferase activity was determined after addition of 100 μl of Steady Glo™ luciferase assay system (Promega E2550) according to the manufacturer's directions. Luciferase activity in cell extracts was measured by reading luminescence using the Envision device.
The cellular response was determined by fitting the concentration response curves using a 3-parameter curve fit equation and determining the concentration that inhibited the luciferase activity by 50%.

T1 sequence (P28347 whole entry): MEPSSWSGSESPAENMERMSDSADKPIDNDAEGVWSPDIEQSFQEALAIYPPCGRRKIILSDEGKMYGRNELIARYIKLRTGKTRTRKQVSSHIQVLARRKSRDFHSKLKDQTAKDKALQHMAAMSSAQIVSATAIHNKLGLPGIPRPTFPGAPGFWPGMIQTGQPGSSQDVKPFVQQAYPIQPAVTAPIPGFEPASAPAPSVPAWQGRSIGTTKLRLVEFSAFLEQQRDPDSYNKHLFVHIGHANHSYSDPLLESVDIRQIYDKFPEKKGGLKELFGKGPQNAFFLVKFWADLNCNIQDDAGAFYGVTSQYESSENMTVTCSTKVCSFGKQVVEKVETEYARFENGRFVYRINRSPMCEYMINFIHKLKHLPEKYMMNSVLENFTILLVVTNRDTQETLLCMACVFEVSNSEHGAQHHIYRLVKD

Row | Emax [%] | IC50 [µM] | Structure (SMILES)
1 | 79 | 0.66 | Cc1csc2c(N(CCO)/N=C/c3ccc4c(c3)COB4O)ncnc12 [Ex97, 2-[[(E)-(1-hydroxy-3H-2,1-benzoxaborol-5-yl)methyleneamino]-(7-methylthieno[3,2-d]pyrimidin-4-yl)amino]ethanol]
2 | 85 | 1.41 | CN(/N=C/c1ccc2c(c1)COB2O)c1ncnc2c1CCC(=O)N2 [Ex100, 4-[[(E)-(1-hydroxy-3H-2,1-benzoxaborol-5-yl)methyleneamino]-methyl-amino]-6,8-dihydro-5H-pyrido[2,3-d]pyrimidin-7-one]
3 | 94 | 0.9 | CN(/N=C/c1ccc2c(c1)COB2O)c1ncnc2c1CCO2 [Ex101, N-[(E)-(1-hydroxy-3H-2,1-benzoxaborol-5-yl)methyleneamino]-N-methyl-5,6-dihydrofuro[2,3-d]pyrimidin-4-amine]
4 | 87 | 1.99 | CN(/N=C/c1ccc2c(c1)COB2O)c1ncnc2c(-c3ccccc3)csc12 [Ex102, N-[(E)-(1-hydroxy-3H-2,1-benzoxaborol-5-yl)methyleneamino]-N-methyl-7-phenyl-thieno[3,2-d]pyrimidin-4-amine]
5 | 79 | 0.71 | CN(/N=C/c1ccc2c(c1)COB2O)c1ncnc2c(C3CC3)csc12 [Ex103, 7-cyclopropyl-N-[(E)-(1-hydroxy-3H-2,1-benzoxaborol-5-yl)methyleneamino]-N-methyl-thieno[3,2-d]pyrimidin-4-amine]
6 | 79 | 1.76 | CN(/N=C/c1ccc2c(c1)COB2O)c1ncnc2c(N3CCOCC3)csc12 [Ex104, N-[(E)-(1-hydroxy-3H-2,1-benzoxaborol-5-yl)methyleneamino]-N-methyl-7-morpholino-thieno[3,2-d]pyrimidin-4-amine]
7 | 83 | 0.51 | CCc1csc2c(N(C)/N=C/c3ccc4c(c3)COB4O)ncnc12 [Ex105, 7-ethyl-N-[(E)-(1-hydroxy-3H-2,1-benzoxaborol-5-yl)methyleneamino]-N-methyl-thieno[3,2-d]pyrimidin-4-amine]
8 | 83 | 1.06 | CN1CCc2c1ncnc2N(C)/N=C/c1ccc2c(c1)COB2O [Ex106, N-[(E)-(1-hydroxy-3H-2,1-benzoxaborol-5-yl)methyleneamino]-N,7-dimethyl-5,6-dihydropyrrolo[2,3-d]pyrimidin-4-amine]
9 | 79 | 1.87 | CCCNC(=O)c1csc2c(N(CC)/N=C/c3ccc4c(c3)COB4O)ncnc12 [Ex112, 4-[ethyl-[(E)-(1-hydroxy-3H-2,1-benzoxaborol-5-yl)methyleneamino]-amino]-N-propyl-thieno[3,2-d]pyrimidine-7-carboxamide]
10 | 70 | 5.21 | CCN(/N=C/c1ccc2c(c1)COB2O)c1ncnc2c(C(=O)N(C)C)csc12 [Ex113, 4-[ethyl-[(E)-(1-hydroxy-3H-2,1-benzoxaborol-5-yl)methyleneamino]-amino]-N,N-dimethyl-thieno[3,2-d]pyrimidine-7-carboxamide]
11 | 79 | 1.74 | CCN(/N=C/c1ccc2c(c1)COB2O)c1ncnc2c(C(=O)NC3COC3)csc12 [Ex115, 4-[ethyl-[(E)-(1-hydroxy-3H-2,1-benzoxaborol-5-yl)methyleneamino]amino]-N-(oxetan-3-yl)thieno[3,2-d]pyrimidine-7-carboxamide]
12 | 86 | 1.94 | CCN(/N=C/c1ccc2c(c1)COB2O)c1ncnc2c(C(=O)NCCCCOC)csc12 [Ex116, 4-[ethyl-[(E)-(1-hydroxy-3H-2,1-benzoxaborol-5-yl)methyleneamino]-amino]-N-(4-methoxybutyl)thieno[3,2-d]pyrimidine-7-carboxamide]
13 | 83 | 0.7 | COCc1csc2c(N(C)/N=C/c3ccc4c(c3)COB4O)ncnc12 [Ex126, N-[(E)-(1-hydroxy-3H-2,1-benzoxaborol-5-yl)methyleneamino]-7-(methoxymethyl)-N-methyl-thieno[3,2-d]pyrimidin-4-amine]

The next lines start with the molecule.

Row | Structure (SMILES) | Emax [%] | IC50 [µM]
14 | COCCCN(/N=C/c1ccc2c(c1)COB2O)c1ncnc2nc(SC)sc12 [Ex96, N-[(E)-(1-hydroxy-3H-2,1-benzoxaborol-5-yl)methyleneamino]-N-(3-methoxypropyl)-2-methylsulfanyl-thiazolo[4,5-d]pyrimidin-7-amine] | 87 | 0.1
15 | CN(/N=C/c1ccc2c(c1)COB2O)c1ncnc2c1[nH]c(=O)n2C1CCC1 [Ex107, 9-cyclobutyl-6-[[(E)-(1-hydroxy-3H-2,1-benzoxaborol-5-yl)methyleneamino]-methyl-amino]-7H-purin-8-one] | 87 | 1.65
16 | COCC1CC(n2c(=O)[nH]c3c(N(C)/N=C/c4ccc5c(c4)COB5O)ncnc32)C1 (centres unmarked) [Ex108, 6-[[(E)-(1-hydroxy-3H-2,1-benzoxaborol-5-yl)methyleneamino]-methyl-amino]-9-[3-(methoxymethyl)cyclobutyl]-7H-purin-8-one] | 82 | 2.59
17 | CN(/N=C/c1ccc2c(c1)COB2O)c1ncnc2c1[nH]c(=O)n2C1CC(O)C1 (centres unmarked) [Ex109, 6-[[(E)-(1-hydroxy-3H-2,1-benzoxaborol-5-yl)methyleneamino]-methyl-amino]-9-(3-hydroxycyclobutyl)-7H-purin-8-one hydrochloride] | 86 | 1.65
18 | CN(/N=C/c1ccc2c(c1)COB2O)c1ncnc2c1CC(=O)N2C1CCC1 [Ex111, 7-cyclobutyl-4-[[(E)-(1-hydroxy-3H-2,1-benzoxaborol-5-yl)methyleneamino]-methyl-amino]-5H-pyrrolo[2,3-d]pyrimidin-6-one] | 83 | 1.58
19 | CCCCN(CCCC)C(=O)c1csc2c(N(CC)/N=C/c3ccc4c(c3)COB4O)ncnc12 [Ex114, N,N-dibutyl-4-[ethyl-[(E)-(1-hydroxy-3H-2,1-benzoxaborol-5-yl)methyleneamino]amino]thieno[3,2-d]pyrimidine-7-carboxamide] | 83 | 1.74
20 | CC1CCC(c2ccc3c(c2)COB3O)=NN1c1ncnc2occc12 (centres unmarked) [Ex117, 4-[6-(1-hydroxy-3H-2,1-benzoxaborol-5-yl)-3-methyl-4,5-dihydro-3H-pyridazin-2-yl]furo[2,3-d]pyrimidine] | 82 | 0.69
21 | CC1CCC(c2ccc3c(c2)COB3O)=NN1c1ncnc2ccsc12 (centres unmarked) [Ex121, 4-[6-(1-hydroxy-3H-2,1-benzoxaborol-5-yl)-3-methyl-4,5-dihydro-3H-pyridazin-2-yl]thieno[3,2-d]pyrimidine] | 80 | 0.72
22 | CC1CCC(c2ccc3c(c2)COB3O)=NN1c1ncnc2c3c(sc12)CCCC3 (centres unmarked) [Ex122, 4-[6-(1-hydroxy-3H-2,1-benzoxaborol-5-yl)-3-methyl-4,5-dihydro-3H-pyridazin-2-yl]-6,7,8,9-tetrahydrobenzothiopheno[3,2-d]pyrimidine] | 94 | 0.82
23 | CSc1nc2ncnc(N3N=C(c4ccc5c(c4)COB5O)CCC3C)c2s1 (centres unmarked) [Ex123, 7-[6-(1-hydroxy-3H-2,1-benzoxaborol-5-yl)-3-methyl-4,5-dihydro-3H-pyridazin-2-yl]-2-methylsulfanyl-thiazolo[4,5-d]pyrimidine] | 96 | 0.2
24 | COc1ccc2c(c1)C(N(CC(C)C)/N=C/c1ccc(B(O)O)c(OC)c1)=NS2(=O)=O [Ex 2, [4-[(E)-[isobutyl-(5-methoxy-1,1-dioxo-1,2-benzothiazol-3-yl)hydrazono]methyl]-2-methoxy-phenyl]boronic acid] | 95 | 2.28
25 | COc1cc(OC)c2c(c1)C(N(CC(C)C)/N=C/c1ccc(B(O)O)c(OC)c1)=NS2(=O)=O [Ex 3, [4-[(E)-[(5,7-dimethoxy-1,1-dioxo-1,2-benzothiazol-3-yl)-isobutyl-hydrazono]methyl]-2-methoxy-phenyl]boronic acid] | 89 | 2.61
